According to PMC8778818, “Synthesis, Structural Characterization and Anticancer Activity of New 5-Trifluoromethyl-2-thioxo-thiazolo[4,5-d]pyrimidine Derivatives” (Pharmaceuticals, 2022):

Experiments:
HCT-15 = assay: NCI-60 screen, Colon Cancer HCT-15; format: cell-based
K-562 = assay: NCI-60 screen, Leukemia K-562; format: cell-based, human
CAKI-1 = assay: NCI-60 screen, Renal Cancer CAKI-1; format: cell-based, human
SN12C = assay: NCI-60 screen, Renal Cancer SN12C; format: cell-based
A549/ATCC = assay: NCI-60 screen, Non-Small Cell Lung Cancer A549/ATCC; format: cell-based, human
SK-MEL-2 = assay: NCI-60 screen, Melanoma SK-MEL-2; format: cell-based, human
SF-539 = assay: NCI-60 screen, CNS Cancer SF-539; format: cell-based, human
MOLT-4 = assay: NCI-60 screen, Leukemia MOLT-4; format: cell-based, human
UO-31 = assay: NCI-60 screen, Renal Cancer UO-31; format: cell-based
C32 = assay: MTT cell viability assay, C32; format: cell-based, human; details: Homo sapiens, 72 h
Method: (§1) Twelve compounds (2a-e, 3a-d and 4a-c) at a concentration range of 50–5000 μM were tested for their antiproliferative potential against four human cancer cell lines (A375—melanotic melanoma, C32—amelanotic melanoma, DU145—prostate cancer androgen-independent, MCF-7/WT—breast adenocarcinoma) and two normal cell lines: Chinese Hamster Ovary (CHO-K1) and immortalized human keratinocytes from histologically normal skin (HaCaT).
(§2) To determine the antiproliferative activity of newly synthesized compounds, the following cell lines were used: human melanotic melanoma cell line (A375), human amelanotic melanoma cell line (C32), human breast adenocarcinoma cell line (MCF-7/WT), human prostate cancer androgen-independent (DU145) and two normal cell lines: hamster ovarian (CHO-K1) and immortalized human keratinocytes from histologically normal skin (HaCaT). The cells were obtained from the cell line bank of the Department of Molecular and Cellular Biology, Wroclaw Medical University. A375, C32, MCF-7/WT, DU145 and HaCaT cells were grown in a monolayer cultured in Dulbecco’s Modified Eagle’s Medium (DMEM, Sigma-Aldrich, Poznań, Poland), supplemented with 10% of fetal bovine serum (FBS, Gibco, Paisley, UK) and 1% of antibiotics (penicillin/streptomycin, Sigma-Aldrich) and CHO-K1 were grown in HAM’s F-12 medium (Sigma-Aldrich), supplemented with 10% fetal bovine serum (FBS, Gibco) and 1% of antibiotics (penicillin/streptomycin, Sigma-Aldrich). Cell lines were cultured in the polystyrene flasks 25 or 75 cm^2 (Thermo Fisher Scientific, Waltham, MA, USA), which were stored in 37 °C and 5% CO2 in a humidified 95% atmosphere (SteriCult, Thermo Scientific, Alab). The cell medium was exchanged twice a week. The exponentially growing cells were used throughout the experiments. The cells were rinsed with phosphate-buffered saline (PBS, Sigma-Aldrich) and trypsinized by Trypsin-EDTA 0.25% solution (Sigma-Aldrich).
(§3) The influence of the compounds was performed in a monolayer culture on cancer and normal cells. Compounds were initially dissolved in DMSO; further dilutions of the compound were performed in Dulbecco’s Modified Eagle’s Medium supplemented with 10% FBS. Compounds were tested in a 50–5000 µM concentration range. In the in vitro experiments, the concentrations of DMSO in the final solution of the compounds were used 0.05%; 0.1%; 0.5%; 1%, respectively.
(§4) Cell viability was determined using the MTT colorimetric assay. All cell lines were seeded into 96-well plates to a density of 3 × 10^4 cells/well. After 24 h, the culture supernatants were removed and appropriate dilutions of compounds in the culture medium (200 µL/well) were added to the cells’ monolayer cultures and incubated for an additional 72 h. After 72 h of exposition to the compounds and the removal of the culture medium, cell viability was determined by reducing the yellow dye 3-(4,5-dimethyl-2-thiazol)-2,5-diphenyl-2H-tetrazolium bromide (MTT assay, Sigma Saint Louis, MO, USA; In Vitro Toxicology Assay) to a blue formazan product. The absorbance of the resulting solutions in three duplicate experiments was measured at the wavelength of 560 nm in a microplate reader (EnSpire, Perkin Elmer, Kraków, Poland). MTT assay is a colorimetric method that estimates the rate of metabolism in viable cells. Absorbance is directly proportional to the number of viable cells. All the experiments were performed three times and the mean absorbance values were calculated. The methodology for the evaluation of the growth of human cancer and normal cells was described previously. The cell viability in each group was expressed as a percentage of control (untreated) cells.

HCT-116 = assay: NCI-60 screen, Colon Cancer HCT-116; format: cell-based, human
A498 = assay: NCI-60 screen, Renal Cancer A498; format: cell-based, human
SK-MEL-5 = assay: NCI-60 screen, Melanoma SK-MEL-5; format: cell-based, human
CCRF-CEM = assay: NCI-60 screen, Leukemia CCRF-CEM; format: cell-based, human
[1] = tested on: A375, C32, DU145, MCF-7/WT, CHO-K1 and HaCaT cell lines; assay: MTT cell viability assay, all six cell lines; format: cell-based; details: mean over the six cell lines; read-out: Mean A: the mean IC50 for the given compound
Method: as §1, §2, §3, §4

NCI-H460 = assay: NCI-60 screen, Non-Small Cell Lung Cancer NCI-H460; format: cell-based, human
MDA-MB-231/ATCC = assay: NCI-60 screen, Breast Cancer MDA-MB-231/ATCC; format: cell-based
OVCAR-5 = assay: NCI-60 screen, Ovarian Cancer OVCAR-5; format: cell-based, human
SNB-19 = assay: NCI-60 screen, CNS Cancer SNB-19; format: cell-based, human
[2] = Homo sapiens, five doses 10^−4–10^−8 M, read-out: log LC50 (the source's name) (converted)
[3] = Homo sapiens, five doses 10^−4–10^−8 M
[4] = Homo sapiens, SK-MEL-2, five doses 10^−4–10^−8 M
[5] = Homo sapiens, MOLT-4, five doses 10^−4–10^−8 M
[6] = Homo sapiens, SNB-19, five doses 10^−4–10^−8 M

FC(F)(F)c1nc(Cl)c2sc(=S)n(-c3ccccc3)c2n1 [Compound 3b, 7-chloro-3-phenyl-5-(trifluoromethyl)[1, 3]thiazolo[4,5-d]pyrimidine-2(3H)-thione]
Growth of Cells (%) (HCT-15; HCT-15, 10^−5 M one dose): 2.98% | log TGI (HCT-15; HCT-15, five doses 10^−4–10^−8 M): −5.26 log M | GI50 (HCT-15; Homo sapiens, HCT-15, read-out: log GI50 (converted)): 1.86 µM | CC50 (HCT-15; Homo sapiens, HCT-15, five doses 10^−4–10^−8 M, read-out: log LC50 (the source's name) (converted)): > 100 µM | GI50 (K-562; Homo sapiens, K562, K-562, five doses 10^−4–10^−8 M): 0.692 µM | CC50 (K-562; Homo sapiens, K562, K-562, five doses 10^−4–10^−8 M, read-out: log LC50 (the source's name) (converted)): > 100 µM | Growth of Cells (%) (K-562; K-562, 10^−5 M one dose): 33.07% | log TGI (K-562; K-562, five doses 10^−4–10^−8 M): −5.36 log M | Growth of Cells (%) (M14; M14, 10^−5 M one dose): 26.96% | log TGI (M14; M14, five doses 10^−4–10^−8 M): −5.39 log M | Growth of Cells (%) (CAKI-1; CAKI-1, 10^−5 M one dose): 81.74% | log TGI (CAKI-1; CAKI-1, five doses 10^−4–10^−8 M): −5.51 log M | GI50 (CAKI-1; Homo sapiens, CAKI-1, five doses 10^−4–10^−8 M): 1.66 µM | CC50 (CAKI-1; Homo sapiens, CAKI-1, five doses 10^−4–10^−8 M, read-out: log LC50 (the source's name) (converted)): 5.75 µM | Growth of Cells (%) (SN12C; 10^−5 M one dose): 85.61% | CC50 (SN12C; [2]): 40.7 µM | GI50 (SN12C; Homo sapiens, read-out: log GI50 (converted)): 3.55 µM | log TGI (SN12C; five doses 10^−4–10^−8 M): −4.88 log M | Growth of Cells (%) (A549/ATCC; 10^−5 M one dose): 91.16% | GI50 (A549/ATCC; [3]): 7.59 µM | LC50 (A549/ATCC; [3]): 53.7 µM | log TGI (A549/ATCC; five doses 10^−4–10^−8 M): −4.66 log M | GI50 (SK-MEL-2; [4]): 2 µM | LC50 (SK-MEL-2; [4]): 7.24 µM | Growth of Cells (%) (SK-MEL-2; SK-MEL-2, 10^−5 M one dose): 55.66% | log TGI (SK-MEL-2; SK-MEL-2, five doses 10^−4–10^−8 M): −5.42 log M | GI50 (SF-539; Homo sapiens, SF-539, five doses 10^−4–10^−8 M): 1.66 µM | CC50 (SF-539; Homo sapiens, SF-539, five doses 10^−4–10^−8 M, read-out: log LC50 (the source's name) (converted)): 5.89 µM | Growth of Cells (%) (SF-539; SF-539, 10^−5 M one dose): 75.80% | log TGI (SF-539; SF-539, five doses 10^−4–10^−8 M): −5.50 log M | GI50 (MOLT-4; [5]): 3.09 µM | LC50 (MOLT-4; [5]): > 100 µM | Growth of Cells (%) (MOLT-4; MOLT-4, 10^−5 M one dose): −27.71% | log TGI (MOLT-4; MOLT-4, five doses 10^−4–10^−8 M): −5.07 log M | GI50 (UO-31; Homo sapiens, UO-31, read-out: log GI50 (converted)): 1.7 µM | CC50 (UO-31; Homo sapiens, UO-31, five doses 10^−4–10^−8 M, read-out: log LC50 (the source's name) (converted)): 6.03 µM | Growth of Cells (%) (UO-31; UO-31, 10^−5 M one dose): −82.97% | log TGI (UO-31; UO-31, five doses 10^−4–10^−8 M): −5.49 log M | IC50 (C32; C32, MTT, mean ± SD): 24.4 ± 0.5 µM | viability at 50 µM (C32; C32 amelanotic melanoma, 50 µM): 20% | Growth of Cells (%) (HCT-116; HCT-116, 10^−5 M one dose): −27.21% | log TGI (HCT-116; HCT-116, five doses 10^−4–10^−8 M): −5.47 log M | GI50 (HCT-116; Homo sapiens, HCT-116, five doses 10^−4–10^−8 M): 1.74 µM | CC50 (HCT-116; Homo sapiens, HCT-116, five doses 10^−4–10^−8 M, read-out: log LC50 (the source's name) (converted)): 6.61 µM | Growth of Cells (%) (A498; A498, 10^−5 M one dose): 91.46% | log TGI (A498; A498, five doses 10^−4–10^−8 M): −4.57 log M | GI50 (A498; Homo sapiens, A498, five doses 10^−4–10^−8 M): 13.5 µM | CC50 (A498; Homo sapiens, A498, five doses 10^−4–10^−8 M, read-out: log LC50 (the source's name) (converted)): 52.5 µM | GI50 (SK-MEL-5; Homo sapiens, SK-MEL-5, five doses 10^−4–10^−8 M): 2.19 µM | CC50 (SK-MEL-5; Homo sapiens, SK-MEL-5, five doses 10^−4–10^−8 M, read-out: log LC50 (the source's name) (converted)): 12.3 µM | Growth of Cells (%) (SK-MEL-5; SK-MEL-5, 10^−5 M one dose): 81.95% | log TGI (SK-MEL-5; SK-MEL-5, five doses 10^−4–10^−8 M): −5.31 log M | Growth of Cells (%) (CCRF-CEM; 10^−5 M one dose): −51.41% | GI50 (CCRF-CEM; [3]): 0.933 µM | CC50 (CCRF-CEM; [2]): > 100 µM | log TGI (CCRF-CEM; five doses 10^−4–10^−8 M): −5.50 log M | IC50 [1]: 43.8 µM | GI50 (NCI-H460; Homo sapiens, NCI-H460, five doses 10^−4–10^−8 M): 3.24 µM | CC50 (NCI-H460; Homo sapiens, NCI-H460, five doses 10^−4–10^−8 M, read-out: log LC50 (the source's name) (converted)): 50.1 µM | Growth of Cells (%) (NCI-H460; NCI-H460, 10^−5 M one dose): 68.89% | log TGI (NCI-H460; NCI-H460, five doses 10^−4–10^−8 M): −4.99 log M | GI50 (MDA-MB-231/ATCC; Homo sapiens, MDA-MB-231, read-out: log GI50 (converted)): 2 µM | CC50 (MDA-MB-231/ATCC; Homo sapiens, MDA-MB-231/ATCC, five doses 10^−4–10^−8 M, read-out: log LC50 (the source's name) (converted)): 7.59 µM | Growth of Cells (%) (MDA-MB-231/ATCC; MDA-MB-231/ATCC, 10^−5 M one dose): 13.85% | log TGI (MDA-MB-231/ATCC; MDA-MB-231/ATCC, five doses 10^−4–10^−8 M): −5.41 log M | GI50 (OVCAR-5; Homo sapiens, OVCAR-5, five doses 10^−4–10^−8 M): 8.71 µM | CC50 (OVCAR-5; Homo sapiens, OVCAR-5, five doses 10^−4–10^−8 M, read-out: log LC50 (the source's name) (converted)): 64.6 µM | Growth of Cells (%) (OVCAR-5; OVCAR-5, 10^−5 M one dose): 86.56% | log TGI (OVCAR-5; OVCAR-5, five doses 10^−4–10^−8 M): −4.60 log M | GI50 (SNB-19; [6]): 1.78 µM | LC50 (SNB-19; [6]): 5.89 µM | Growth of Cells (%) (SNB-19; SNB-19, 10^−5 M one dose): 98.46% | log TGI (SNB-19; SNB-19, five doses 10^−4–10^−8 M): −5.49 log M
